Data as given in patent US11066396B2 (priority 2016, dated 2021).

Experiments:
HDAC1 = HDAC1 (Homo sapiens (Human), UniProt Q13547); conditions: read-out: HDAC1 IC50
HDAC8 = HDAC8 (Homo sapiens (Human), UniProt Q9BY41); conditions: read-out: HDAC8 IC50
HDAC8, sequence (Q9BY41 whole entry): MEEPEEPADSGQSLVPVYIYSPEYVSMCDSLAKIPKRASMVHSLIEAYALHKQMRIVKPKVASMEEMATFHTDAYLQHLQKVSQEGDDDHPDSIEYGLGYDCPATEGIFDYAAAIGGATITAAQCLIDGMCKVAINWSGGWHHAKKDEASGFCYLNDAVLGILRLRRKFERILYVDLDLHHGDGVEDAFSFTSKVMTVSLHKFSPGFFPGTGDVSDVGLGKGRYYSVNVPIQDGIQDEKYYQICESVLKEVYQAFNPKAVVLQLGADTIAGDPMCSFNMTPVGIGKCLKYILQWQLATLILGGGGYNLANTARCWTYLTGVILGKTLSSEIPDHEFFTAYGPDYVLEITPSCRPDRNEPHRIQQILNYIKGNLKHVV

HDAC1, sequence (Q13547 whole entry): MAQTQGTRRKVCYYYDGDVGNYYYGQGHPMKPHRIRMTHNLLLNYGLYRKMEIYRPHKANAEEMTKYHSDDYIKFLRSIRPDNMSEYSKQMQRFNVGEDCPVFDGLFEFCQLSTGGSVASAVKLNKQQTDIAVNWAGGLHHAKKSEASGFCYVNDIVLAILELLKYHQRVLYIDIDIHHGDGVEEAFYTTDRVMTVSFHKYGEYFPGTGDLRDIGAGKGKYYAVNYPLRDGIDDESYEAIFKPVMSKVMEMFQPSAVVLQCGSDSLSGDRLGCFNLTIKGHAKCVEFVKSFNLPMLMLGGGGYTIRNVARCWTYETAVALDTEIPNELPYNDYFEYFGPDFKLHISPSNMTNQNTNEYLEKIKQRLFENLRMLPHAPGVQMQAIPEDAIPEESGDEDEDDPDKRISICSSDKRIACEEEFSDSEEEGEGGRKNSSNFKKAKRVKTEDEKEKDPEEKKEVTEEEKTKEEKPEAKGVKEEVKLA

| SMILES | IC50 (HDAC1) [nM] | IC50 (HDAC8) [nM] |
| --- | --- | --- |
| CC(C)(C)OC(=O)[C@@H]1CCC(=O)N1c1ccc(-c2noc(C(F)(F)F)n2)c(F)c1 [Example 331, tert-butyl 1-{3-fluoro-4-[5-(trifluoromethyl)-1,2,4-oxadiazol-3-yl]phenyl}-5-oxo-L-prolinate] | 4900 | 19000 |
| O=C1OC[C@@H](c2ccccc2)N1c1ccc(-c2noc(C(F)(F)F)n2)c(F)c1 [Example 332, (4R)-3-{3-fluoro-4-[5-(trifluoromethyl)-1,2,4-oxadiazol-3-yl]phenyl}-4-phenyl-1,3-oxazolidin-2-one] | 4500 | 4500 |
| Cc1noc([C@@H]2CCC(=O)N2c2ccc(-c3noc(C(F)(F)F)n3)c(F)c2)n1 [Example 333, (5S)-1-{3-fluoro-4-[5-(trifluoromethyl)-1,2,4-oxadiazol-3-yl]phenyl}-5-(3-methyl-1,2,4-oxadiazol-5-yl)pyrrolidin-2-one] | 3300 | 6700 |
| O=C([C@@H]1CCC(=O)N1c1cc(F)c(-c2noc(C(F)(F)F)n2)cc1F)N1CCCc2ccccc21 [Example 334, (5S)-1-{2,5-difluoro-4-[5-(trifluoromethyl)-1,2,4-oxadiazol-3-yl]phenyl}-5-(3,4-dihydroquinolin-1(2H)-ylcarbonyl)pyrrolidin-2-one] | 4400 | 19000 |
| O=C([C@@H]1CCC(=O)N1c1cc(F)c(-c2noc(C(F)(F)F)n2)cc1F)N1CCc2ccccc2C1 [Example 335, (5S)-1-{2,5-difluoro-4-[5-(trifluoromethyl)-1,2,4-oxadiazol-3-yl]phenyl}-5-(3,4-dihydroisoquinolin-2(1H)-ylcarbonyl)pyrrolidin-2-one] | 1200 | 7400 |
| O=C([C@@H]1CCC(=O)N1c1cc(F)c(-c2noc(C(F)(F)F)n2)cc1F)N1CCCC1 [Example 336, (5S)-1-{2,5-difluoro-4-[5-(trifluoromethyl)-1,2,4-oxadiazol-3-yl]phenyl}-5-(pyrrolidin-1-ylcarbonyl)pyrrolidin-2-one] | 10000 | 26000 |
| CC1(C)CCCN1C(=O)[C@@H]1CCC(=O)N1c1cc(F)c(-c2noc(C(F)(F)F)n2)cc1F [Example 339, (5S)-1-{2,5-difluoro-4-[5-(trifluoromethyl)-1,2,4-oxadiazol-3-yl]phenyl}-5-[(2,2-dimethylpyrrolidin-1-yl)carbonyl]pyrrolidin-2-one] | 13000 | 45000 |
| O=C([C@@H]1CCC(=O)N1c1cc(F)c(-c2noc(C(F)(F)F)n2)cc1F)N1CCC1 [Example 341, (5S)-5-(azetidin-1-ylcarbonyl)-1-{2,5-difluoro-4-[5-(trifluoromethyl)-1,2,4-oxadiazol-3-yl]phenyl}pyrrolidin-2-one] | 41000 | 26000 |
| CC1(C)CCCN1C(=O)[C@@H]1CCC(=O)N1c1ccc(-c2noc(C(F)(F)F)n2)c(F)c1 [Example 342, (5S)-5-[(2,2-dimethylpyrrolidin-1-yl)carbonyl]-1-{3-fluoro-4-[5-(trifluoromethyl)-1,2,4-oxadiazol-3-yl]phenyl}pyrrolidin-2-one] | 45000 | 25000 |
| Cc1cccc(N2CCC(NCc3ccc(-c4noc(C(F)(F)F)n4)cc3)CC2)c1 [Example 349, 1-(3-methylphenyl)-N-({4-[5-(trifluoromethyl)-1,2,4-oxadiazol-3-yl]phenyl}methyl)piperidin-4-amine] | 730 | 1400 |
| CN1Cc2ccc(NCc3ccc(-c4noc(C(F)(F)F)n4)cn3)cc2C1=O [Example 356, 2-methyl-6-[({5-[5-(trifluoromethyl)-1,2,4-oxadiazol-3-yl]pyridin-2-yl}methyl)amino]-2,3-dihydro-1H-isoindol-1-one] | 280 | 520 |
| FC(F)(F)c1nc(-c2ccc(CNc3ccc4nccn4c3)nc2)no1 [Example 357, N-({5-[5-(trifluoromethyl)-1,2,4-oxadiazol-3-yl]pyridin-2-yl}methyl)imidazo[1,2-a]pyridin-6-amine] | 210 | 960 |
| Cn1ccc(NCc2ccc(-c3noc(C(F)(F)F)n3)cn2)cc1=O [Example 358, 1-methyl-4-[({5-[5-(trifluoromethyl)-1,2,4-oxadiazol-3-yl]pyridin-2-yl}methyl)amino]pyridin-2(1H)-one] | 890 | 2400 |
| Cc1ccc(NCc2ccc(-c3noc(C(F)(F)F)n3)cn2)cn1 [Example 359, 6-methyl-N-({5-[5-(trifluoromethyl)-1,2,4-oxadiazol-3-yl]pyridin-2-yl}methyl)pyridin-3-amine] | 430 | 1800 |
| OCc1cc(NCc2ccc(-c3noc(C(F)(F)F)n3)cn2)ccc1F [Example 361, {2-fluoro-5-[({5-[5-(trifluoromethyl)-1,2,4-oxadiazol-3-yl]pyridin-2-yl}methyl)amino]phenyl}methanol] | 520 | 1600 |
| Cc1ccc(NCc2ccc(-c3noc(C(F)(F)F)n3)cn2)nn1 [Example 362, 6-methyl-N-({5-[5-(trifluoromethyl)-1,2,4-oxadiazol-3-yl]pyridin-2-yl}methyl)pyridazin-3-amine] | 1400 | 2800 |
| COc1ccc(NCc2ccc(-c3noc(C(F)(F)F)n3)cn2)cn1 [Example 363, 6-methoxy-N-({5-[5-(trifluoromethyl)-1,2,4-oxadiazol-3-yl]pyridin-2-yl}methyl)pyridin-3-amine] | 520 | 3400 |

| SMILES | IC50 (HDAC1) [nM] | IC50 (HDAC8) [nM] |
| --- | --- | --- |
| FC(F)(F)c1nc(-c2ccc(CNc3cc4ccccn4n3)nc2)no1 [Example 365, N-({5-[5-(trifluoromethyl)-1,2,4-oxadiazol-3-yl]pyridin-2-yl}methyl)pyrazolo[1,5-a]pyridin-2-amine] | 1200 | 1800 |
| Cn1ncc(NCc2ccc(-c3noc(C(F)(F)F)n3)cn2)n1 [Example 366, 2-methyl-N-({5-[5-(trifluoromethyl)-1,2,4-oxadiazol-3-yl]pyridin-2-yl}methyl)-2H-1,2,3-triazol-4-amine] | 1300 | 2700 |
| OCc1ccnc(NCc2ccc(-c3noc(C(F)(F)F)n3)cn2)c1 [Example 367, {2-[({5-[5-(trifluoromethyl)-1,2,4-oxadiazol-3-yl]pyridin-2-yl}methyl)amino]pyridin-4-yl}methanol] | 820 | 870 |
| FC(F)(F)c1nc(-c2ccc(CNc3cnccn3)nc2)no1 [Example 368, N-({5-[5-(trifluoromethyl)-1,2,4-oxadiazol-3-yl]pyridin-2-yl}methyl)pyrazin-2-amine] | 1000 | 890 |
| FC(F)(F)c1nc(-c2ccc(CNc3cncnc3)nc2)no1 [Example 369, N-({5-[5-(trifluoromethyl)-1,2,4-oxadiazol-3-yl]pyridin-2-yl}methyl)pyrimidin-5-amine] | 930 | 960 |
| FC(F)(F)c1nc(-c2ccc(CNc3ccc4ccncc4c3)nc2)no1 [Example 370, N-({5-[5-(trifluoromethyl)-1,2,4-oxadiazol-3-yl]pyridin-2-yl}methyl)isoquinolin-7-amine] | 68 | 860 |
| O=C1NC(=O)[C@]2(CC[C@H](NCc3ccc(-c4noc(C(F)(F)F)n4)cn3)CC2)N1 [Example 376, (5s,8s)-8-[({5-[5-(trifluoromethyl)-1,2,4-oxadiazol-3-yl]pyridin-2-yl}methyl)amino]-1,3-diazaspiro[4.5]decane-2,4-dione] | 3400 | 3900 |
| FC(F)(F)c1nc(-c2ccc(CNC3Cc4ccccc4C3)nc2)no1 [Example 378, N-({5-[5-(trifluoromethyl)-1,2,4-oxadiazol-3-yl]pyridin-2-yl}methyl)-2,3-dihydro-1H-inden-2-amine] | 630 | 4200 |
| FC(F)(F)c1nc(-c2ccc(CNC3CCN(c4ccccn4)CC3)nc2)no1 [Example 379, 1-(pyridin-2-yl)-N-({5-[5-(trifluoromethyl)-1,2,4-oxadiazol-3-yl]pyridin-2-yl}methyl)piperidin-4-amine] | 1900 | 7700 |
| Cc1cc(NCc2ccc(-c3noc(C(F)(F)F)n3)cn2)on1 [Example 380, 3-methyl-N-({5-[5-(trifluoromethyl)-1,2,4-oxadiazol-3-yl]pyridin-2-yl}methyl)-1,2-oxazol-5-amine] | 930 | 1400 |
| FC(F)(F)c1nc(-c2ccc(CNc3ccccn3)cc2)no1 [Example 382, N-{4-[5-(trifluoromethyl)-1,2,4-oxadiazol-3-yl]benzyl}pyridin-2-amine] | 1600 | 2100 |
| FC(F)(F)c1nc(-c2ccc(CNc3cccnc3)cc2)no1 [Example 383, N-{4-[5-(trifluoromethyl)-1,2,4-oxadiazol-3-yl]benzyl}pyridin-3-amine] | 1700 | 3100 |
| FC(F)(F)c1nc(-c2ccc(CNc3ncccn3)cc2)no1 [Example 386, N-{4-[5-(trifluoromethyl)-1,2,4-oxadiazol-3-yl]benzyl}pyrimidin-2-amine] | 5300 | 3900 |
| Cn1nccc1CCOc1cc(-c2noc(C(F)(F)F)n2)ccn1 [Example 387, 2-[2-(1-methyl-1H-pyrazol-5-yl)ethoxy]-4-[5-(trifluoromethyl)-1,2,4-oxadiazol-3-yl]pyridine] | 3100 | 880 |
| O=c1ccc2ccc(C(F)(F)F)cc2n1Cc1ccc(-c2noc(C(F)(F)F)n2)cn1 [Example 388, 7-(trifluoromethyl)-1-({5-[5-(trifluoromethyl)-1,2,4-oxadiazol-3-yl]pyridin-2-yl}methyl)quinolin-2(1H)-one] | 280 | 4900 |
| CC(C)(C(=O)N(Cc1ccc(-c2noc(C(F)(F)F)n2)cn1)c1cccc(F)c1)n1cccn1 [Example 391, N-(3-fluorophenyl)-2-methyl-2-(1H-pyrazol-1-yl)-N-({5-[5-(trifluoromethyl)-1,2,4-oxadiazol-3-yl]pyridin-2-yl}methyl)propanamide] | 1400 | 7400 |
